Reference: patent publication US11492335B2, “Aryl or heteroaryl triazolone derivatives or salts thereof, or pharmaceutical compositions comprising the same” (YUHAN CORPORATION, priority 2018, dated 2022)
Where a name gives a salt, the structure may show the parent alone. Read-outs that look alike come from different tables or passages of the source.

Experiments:
Format in all cases: biochemical
[1] = molecular target: T1, recombinant human VAP-1 (Homo sapiens, UniProt Q16853); assay: Activity on recombinant human VAP-1, Amplex Red HRP-coupled hydrogen peroxide assay, benzylamine substrate; conditions: recombinant human VAP-1, benzylamine substrate, read-out: Inhibitory Activity (IC50, nM) human VAP-1
T1 construct: purchased R&D systems
T1 sequence (Q16853 1-763): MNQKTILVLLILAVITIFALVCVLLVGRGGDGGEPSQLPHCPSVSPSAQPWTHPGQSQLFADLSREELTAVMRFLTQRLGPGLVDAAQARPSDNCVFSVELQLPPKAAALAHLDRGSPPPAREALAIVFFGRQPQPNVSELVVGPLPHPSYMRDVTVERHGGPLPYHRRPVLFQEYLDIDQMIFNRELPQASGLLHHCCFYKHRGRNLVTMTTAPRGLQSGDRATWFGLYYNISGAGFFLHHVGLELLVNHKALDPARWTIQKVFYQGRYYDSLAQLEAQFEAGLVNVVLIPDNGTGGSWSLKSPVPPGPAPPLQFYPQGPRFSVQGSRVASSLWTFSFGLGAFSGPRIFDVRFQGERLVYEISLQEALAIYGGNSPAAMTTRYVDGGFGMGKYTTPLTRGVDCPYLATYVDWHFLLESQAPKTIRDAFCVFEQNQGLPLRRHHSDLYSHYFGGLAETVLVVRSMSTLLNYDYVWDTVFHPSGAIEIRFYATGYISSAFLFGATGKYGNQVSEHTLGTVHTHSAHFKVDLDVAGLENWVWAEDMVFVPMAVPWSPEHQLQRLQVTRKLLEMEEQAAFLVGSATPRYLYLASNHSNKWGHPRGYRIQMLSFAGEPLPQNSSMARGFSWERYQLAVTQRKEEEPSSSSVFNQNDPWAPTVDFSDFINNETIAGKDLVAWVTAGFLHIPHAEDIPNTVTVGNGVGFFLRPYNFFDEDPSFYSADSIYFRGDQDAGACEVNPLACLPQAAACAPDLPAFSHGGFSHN
How it was run: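 Enzyme in 50 mM sodium phosphate (pH 7.4) is exposed to test compound for 30 min at 37 °C. Benzylamine (1 mM) with HRP and Amplex Red then starts the reaction, and the fluorescence rate, relative to a DMSO-only control, gives IC50.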

[2] = molecular target: T2, recombinant human MAO-A (monoamine oxidase-A) (Homo sapiens, UniProt P21397); assay: Activity on recombinant human MAO-A, Amplex Red method, 0.5 mM tyramine substrate; conditions: read-out: Inhibitory Activity (IC50, nM) MAO-A
T2 construct: purchased Sigma-Aldrich
T2 sequence (P21397 1-527): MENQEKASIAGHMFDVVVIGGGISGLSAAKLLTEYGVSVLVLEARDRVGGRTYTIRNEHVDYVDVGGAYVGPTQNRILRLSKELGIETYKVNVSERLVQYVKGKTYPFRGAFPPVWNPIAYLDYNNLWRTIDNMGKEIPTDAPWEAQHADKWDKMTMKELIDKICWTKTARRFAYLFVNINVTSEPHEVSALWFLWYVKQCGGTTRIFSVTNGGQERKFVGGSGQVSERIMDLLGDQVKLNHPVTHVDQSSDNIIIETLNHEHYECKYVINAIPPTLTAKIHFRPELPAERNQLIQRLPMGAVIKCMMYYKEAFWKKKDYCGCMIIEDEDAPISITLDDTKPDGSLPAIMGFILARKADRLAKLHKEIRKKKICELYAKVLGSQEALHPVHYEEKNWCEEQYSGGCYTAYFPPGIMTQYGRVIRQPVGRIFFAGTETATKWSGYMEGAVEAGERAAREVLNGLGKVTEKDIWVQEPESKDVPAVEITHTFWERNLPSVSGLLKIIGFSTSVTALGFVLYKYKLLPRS
How it was run: (§1)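 Enzyme in pH 7.4 phosphate buffer; 30 min, 37° C with compound (DMSO <1%); start with 200 uM Amplex Red + 1 U/mL HRP + tyramine 0.5 mM (MAO-A) or benzylamine 1 mM (MAO-B); kinetic read ex 544/em 590, 1-2 h; % rate decrease vs DMSO control → IC50, 4-parameter fit.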

[3] = molecular target: T3, recombinant human DAO (diamine oxidase) (Homo sapiens, UniProt P19801); assay: Activity on recombinant human DAO, Amplex Red method, 1 mM putrescine substrate; conditions: recombinant human DAO, read-out: Inhibitory Activity (IC50, nM) DAO
T3 construct: purchased R&D systems
T3 sequence (P19801 20-751): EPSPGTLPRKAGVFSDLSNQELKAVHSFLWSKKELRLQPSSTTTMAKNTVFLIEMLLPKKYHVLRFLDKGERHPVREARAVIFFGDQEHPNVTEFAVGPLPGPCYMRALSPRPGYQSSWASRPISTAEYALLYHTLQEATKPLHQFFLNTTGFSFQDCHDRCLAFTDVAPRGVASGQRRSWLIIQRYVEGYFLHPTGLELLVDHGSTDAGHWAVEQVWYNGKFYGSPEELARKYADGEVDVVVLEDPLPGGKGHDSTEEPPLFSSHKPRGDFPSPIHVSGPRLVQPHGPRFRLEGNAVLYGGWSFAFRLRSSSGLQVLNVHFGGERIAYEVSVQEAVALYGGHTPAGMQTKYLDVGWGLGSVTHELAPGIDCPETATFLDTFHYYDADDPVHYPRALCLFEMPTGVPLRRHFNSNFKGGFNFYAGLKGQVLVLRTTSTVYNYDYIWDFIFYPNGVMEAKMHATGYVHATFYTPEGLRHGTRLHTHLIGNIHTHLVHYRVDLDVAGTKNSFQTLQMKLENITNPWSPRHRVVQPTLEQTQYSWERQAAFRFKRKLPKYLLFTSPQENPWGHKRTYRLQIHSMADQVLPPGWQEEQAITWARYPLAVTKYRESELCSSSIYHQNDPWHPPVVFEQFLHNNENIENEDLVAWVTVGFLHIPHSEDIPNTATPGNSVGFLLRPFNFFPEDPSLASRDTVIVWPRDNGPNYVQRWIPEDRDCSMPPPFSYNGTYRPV
How it was run: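 Inhibition of recombinant human DAO (diamine oxidase, R&D systems) was assessed with the Amplex Red Hydrogen Peroxide Assay Kit. Hydrogen peroxide produced from 1 mM putrescine was detected through an HRP-coupled reaction that converts Amplex Red into fluorescent resorufin, read at 544 nm excitation and 590 nm emission. IC50 values came from four-parameter logistic fits in GraphPad Prism.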

[4] = molecular target: T4, recombinant human MAO-B (monoamine oxidase-B) (Homo sapiens, UniProt P27338); assay: Activity on recombinant human MAO-B, Amplex Red method, 1 mM benzylamine substrate; conditions: read-out: Inhibitory Activity (IC50, nM) MAO-B
T4 construct: purchased Sigma-Aldrich
T4 sequence (P27338 1-520): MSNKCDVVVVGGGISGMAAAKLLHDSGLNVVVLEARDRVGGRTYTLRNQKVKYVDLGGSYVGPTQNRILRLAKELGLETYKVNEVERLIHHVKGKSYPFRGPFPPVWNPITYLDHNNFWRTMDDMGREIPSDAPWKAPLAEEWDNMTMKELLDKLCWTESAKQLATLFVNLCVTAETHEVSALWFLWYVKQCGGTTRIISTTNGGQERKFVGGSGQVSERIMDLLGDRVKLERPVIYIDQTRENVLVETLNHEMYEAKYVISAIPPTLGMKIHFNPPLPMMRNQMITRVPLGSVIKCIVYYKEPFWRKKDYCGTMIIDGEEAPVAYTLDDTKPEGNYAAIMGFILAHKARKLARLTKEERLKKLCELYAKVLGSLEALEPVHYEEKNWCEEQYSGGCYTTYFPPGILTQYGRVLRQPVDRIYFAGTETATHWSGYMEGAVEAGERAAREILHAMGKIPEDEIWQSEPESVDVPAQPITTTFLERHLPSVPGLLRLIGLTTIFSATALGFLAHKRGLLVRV
How it was run: as §1

[5] = 1 mM putrescine, * = between 10 and 100 nM, ** = between 300 and 1000 nM

Row | SMILES | IC50 [1] | IC50 ([2]; 0.5 mM tyramine substrate) | IC50 ([3]; 1 mM putrescine substrate) | IC50 ([4]; 1 mM benzylamine substrate) | IC50 ([1]; 30 min preincubation at 37° C.) | IC50 ([2]; 0.5 mM tyramine) | IC50 [3, 5] | IC50 ([4]; 1 mM benzylamine)
1 | NC/C(=C\F)Cn1ncn(-c2cccc(-c3ccc(N4CCOCC4)c(F)c3)c2)c1=O [Example 75, 2-[(2E)-2-(aminomethyl)-3-fluoroprop-2-en-1-yl]-4-[3′-fluoro-4′-(morpholin-4-yl)biphenyl-3-yl]-2,4-dihydro-3H-1,2,4-triazol-3-one hydrochloride] |  |  |  |  | 0.93 nM | > 100000 nM | < 100 nM | > 10000 nM
2 | NC/C(=C/F)Cn1ncn(-c2cccc(-c3ccc(-c4nnc[nH]4)cc3)c2)c1=O [Example 58, 2-[(2Z)-2-(aminomethyl)-3-fluoroprop-2-en-1-yl]-4-[4′-(4H-1,2,4-triazol-3-yl)biphenyl-3-yl]-2,4-dihydro-3H-1,2,4-triazol-3-one] |  |  |  |  | 0.63 nM | > 100000 nM | < 100 nM | > 10000 nM
3 | Cc1cc(-c2ccc3nonc3c2)cnc1-n1cnn(C/C(=C/F)CN)c1=O [Example 152, 2-[(2E)-2-(aminomethyl)-3-fluoroprop-2-en-1-yl]-4-[5-(2,1,3-benzooxadiazol-5-yl)-3-methylpyridin-2-yl]-2,4-dihydro-3H-1,2,4-triazol-3-one hydrochloride] | 0.5 nM | 7420 nM | 1300 nM | 314 nM |  |  |  | 
4 | CC(=O)Nc1ccc(-c2ccc(-n3cnn(C/C(=C\F)CN)c3=O)nc2)cc1 [Example 130, N-[4-(6-{1-[(2Z)-2-(aminomethyl)-3-fluoroprop-2-en-1-yl]-5-oxo-1,5-dihydro-4H-1,2,4-triazol-4-yl}pyridin-3-yl)phenyl]acetamide hydrochloride] |  |  |  |  | 0.39 nM | 26000 nM | 1 to 10 nM | 20 nM
5 | NC/C(=C\F)Cn1ncn(-c2cccc(-c3ccc(N4CCOCC4)cc3)c2)c1=O [Example 74, 2-[(2E)-2-(aminomethyl)-3-fluoroprop-2-en-1-yl]-4-[4′-(morpholin-4-yl)biphenyl-3-yl]-2,4-dihydro-3H-1,2,4-triazol-3-one hydrochloride] |  |  |  |  | 0.84 nM | > 100000 nM | 282 nM | > 10000 nM
6 | Cc1cc(-c2cccc(-n3cnn(C/C(=C/F)CN)c3=O)c2)cc2c1NC(=O)CC2 [Example 102, 6-(3-{1-[(2E)-2-(aminomethyl)-3-fluoroprop-2-en-1-yl]-5-oxo-1,5-dihydro-4H-1,2,4-triazol-4-yl}phenyl)-8-methyl-3,4-dihydroquinolin-2(1H)-one hydrochloride] |  |  |  |  | 0.2 nM | > 100000 nM | 28 nM | > 10000 nM
7 | NC/C(=C\F)Cn1ncn(-c2cccc(-c3c[nH]c4ccccc34)c2)c1=O [Example 100, 2-[(2E)-2-(aminomethyl)-3-fluoroprop-2-en-1-yl]-4-[3-(1H-indol-3-yl)phenyl]-2,4-dihydro-3H-1,2,4-triazol-3-one hydrochloride] |  |  |  |  | 0.92 nM | 39300 nM | 27 nM | 162 nM

Continued, values first:

Row | IC50 [1] | IC50 ([2]; 0.5 mM tyramine substrate) | IC50 ([3]; 1 mM putrescine substrate) | IC50 ([4]; 1 mM benzylamine substrate) | IC50 ([1]; 30 min preincubation at 37° C.) | IC50 ([2]; 0.5 mM tyramine) | IC50 [3, 5] | IC50 ([4]; 1 mM benzylamine) | SMILES
8 | 0.23 nM | 20700 nM | < 30 nM | 2420 nM |  |  |  |  | CC(=O)Nc1ccc(-c2ccnc(-n3cnn(C/C(=C/F)CN)c3=O)c2)cc1 [Example 166, N-[4-(2-{1-[(2E)-2-(aminomethyl)-3-fluoroprop-2-en-1-yl]-5-oxo-1,5-dihydro-4H-1,2,4-triazol-4-yl}pyridin-4-yl)phenyl]acetamide]
9 | 1.3 nM | > 100000 nM | < 100 nM | 49 nM |  |  |  |  | NC/C(=C\F)Cn1ncn(-c2cnc(-c3ccc4sc(N)nc4c3)cn2)c1=O [Example 224, 4-[5-(2-amino-1,3-benzothiazol-5-yl)pyrazin-2-yl]-2-[(2E)-2-(aminomethyl)-3-fluoroprop-2-en-1-yl]-2,4-dihydro-3H-1,2,4-triazol-3-one]
10 | 0.84 nM | > 100000 nM | < 30 nM | 1540 nM |  |  |  |  | NC/C(=C\F)Cn1ncn(-c2cc(-c3ccc4c(c3)OCCO4)ccn2)c1=O [Example 171, 2-[(2E)-2-(aminomethyl)-3-fluoroprop-2-en-1-yl]-4-[4-(2,3-dihydro-1,4-benzodioxin-6-yl)pyridin-2-yl]-2,4-dihydro-3H-1,2,4-triazol-3-one]
11 | 29 nM | > 100000 nM | 1800 nM | > 10000 nM |  |  |  |  | Cc1ccc(-c2ccc3c(c2)OCO3)nc1-n1cnn(C/C(=C/F)CN)c1=O [Example 213, 2-[(2E)-2-(aminomethyl)-3-fluoroprop-2-en-1-yl]-4-[6-(1,3-benzodioxol-5-yl)-3-methylpyridin-2-yl]-2,4-dihydro-3H-1,2,4-triazol-3-one hydrochloride]
